Laboratory results: ChEMBL document CHEMBL1201862, “PubChem BioAssay data set” (2004)
Calls of active or inactive are those of the source.

What was measured:
[1] = biological target: T1, Type-1 angiotensin II receptor (Homo sapiens, UniProt P30556); test: AT1 receptor antagonists, dose response, selectivity assay for APJ receptor antagonist project, cell-based, uHTS hits (AID 463214); assay type: functional;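 further: antagonist potency against angiotensin II stimulated AT1 response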
T1 sequence (P30556 whole entry): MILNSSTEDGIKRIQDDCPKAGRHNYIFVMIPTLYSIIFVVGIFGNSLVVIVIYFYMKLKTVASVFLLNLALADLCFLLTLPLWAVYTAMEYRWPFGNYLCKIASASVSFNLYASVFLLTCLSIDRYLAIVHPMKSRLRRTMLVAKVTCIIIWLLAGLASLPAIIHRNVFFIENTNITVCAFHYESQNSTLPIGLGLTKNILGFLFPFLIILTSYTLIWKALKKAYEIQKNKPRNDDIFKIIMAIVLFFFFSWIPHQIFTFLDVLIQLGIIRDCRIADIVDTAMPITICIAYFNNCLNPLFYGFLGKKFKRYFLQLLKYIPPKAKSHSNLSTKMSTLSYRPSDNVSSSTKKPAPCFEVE

Beta-galactosidase = Beta-galactosidase (Escherichia coli, UniProt Q8VNN2); test: PubChem AID 485352; assay type: functional
[2] = NIH-3T3 fibroblast cytotoxicity, dose response, cytotoxicity control, cell-based, fluorescence, Alamar Blue, secondary assay (AID 2327); assay type: functional;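 further: NIH-3T3 mouse fibroblasts cultured with fluconazole at 8 µg/mL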
[3] = biological target: ATP-dependent molecular chaperone HSP82 (Candida albicans (strain WO-1) (Yeast), UniProt C4YTQ8); test: loss of DOC-induced GRE-beta-galactosidase reporter signal, dose response, Hsp90 inhibitor project, S. cerevisiae, luminescence (AID 2400); assay type: functional, cell-based;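 further: beta-galactosidase luminescence from glucocorticoid response element reporter as proxy for Hsp90 function; inhibitor potency where signal loss means Hsp90 inhibition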
[4] = C. albicans growth with fluconazole, confirmation, fluorescence, retest (AID 2467); assay type: functional, cell-based
[5] = biological target: T2, Serine/threonine-protein phosphatase (Candida dubliniensis (strain CD36 / CBS 7987 / NCPF 3949 / NRRLY-17841) (Yeast), UniProt B9W6M3); test: calcineurin pathway inhibitors in yeast reporter, dose response, S. cerevisiae, CDRE-lacZ, luminescence, secondary (AID 2388); assay type: functional, cell-based;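 further: yeast reporter cells carrying a calcineurin-responsive lacZ construct stimulated with calcium chloride; luminescent beta-galactosidase reporter signal in whole cells rather than isolated phosphatase activity; potency for inhibition where a drop in reporter signal means calcineurin blockade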
T2 sequence (B9W6M3 whole entry): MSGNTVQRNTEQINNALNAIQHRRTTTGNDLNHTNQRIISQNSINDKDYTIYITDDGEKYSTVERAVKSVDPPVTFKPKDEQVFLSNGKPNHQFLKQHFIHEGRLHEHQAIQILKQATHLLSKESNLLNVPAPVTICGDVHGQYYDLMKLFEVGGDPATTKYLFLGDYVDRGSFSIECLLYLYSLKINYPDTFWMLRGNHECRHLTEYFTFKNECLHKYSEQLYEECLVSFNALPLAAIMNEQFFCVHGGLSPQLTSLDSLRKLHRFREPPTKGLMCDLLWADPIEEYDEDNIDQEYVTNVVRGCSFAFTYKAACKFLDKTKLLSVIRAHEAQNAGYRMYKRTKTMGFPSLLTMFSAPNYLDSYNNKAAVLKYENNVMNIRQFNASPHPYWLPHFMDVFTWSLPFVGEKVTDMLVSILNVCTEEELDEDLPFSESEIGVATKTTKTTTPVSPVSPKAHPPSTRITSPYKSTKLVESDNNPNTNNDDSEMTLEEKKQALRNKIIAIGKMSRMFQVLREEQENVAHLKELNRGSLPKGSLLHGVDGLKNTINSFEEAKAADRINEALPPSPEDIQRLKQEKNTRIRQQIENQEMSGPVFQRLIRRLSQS

Tumor necrosis factor = Tumor necrosis factor (Homo sapiens, UniProt P01375); test: TNFa-triggered NF-kB activation inhibitors, SAR follow-up, cell-based, revised (AID 2337); assay type: functional
[6] = biological target: T3, Nucleotide-binding oligomerization domain-containing protein 2 (Homo sapiens, UniProt Q9HC29); test: NOD2 signaling inhibitors, cell-based, luminescence, uHTS, HEK293 (AID 1566); assay type: functional
[7] = biological target: T4, Nucleotide-binding oligomerization domain-containing protein 1 (Homo sapiens, UniProt Q9Y239); test: NOD1 signaling inhibitors, SAR follow-up, revised (AID 2333); assay type: functional
T4 sequence (Q9Y239 whole entry): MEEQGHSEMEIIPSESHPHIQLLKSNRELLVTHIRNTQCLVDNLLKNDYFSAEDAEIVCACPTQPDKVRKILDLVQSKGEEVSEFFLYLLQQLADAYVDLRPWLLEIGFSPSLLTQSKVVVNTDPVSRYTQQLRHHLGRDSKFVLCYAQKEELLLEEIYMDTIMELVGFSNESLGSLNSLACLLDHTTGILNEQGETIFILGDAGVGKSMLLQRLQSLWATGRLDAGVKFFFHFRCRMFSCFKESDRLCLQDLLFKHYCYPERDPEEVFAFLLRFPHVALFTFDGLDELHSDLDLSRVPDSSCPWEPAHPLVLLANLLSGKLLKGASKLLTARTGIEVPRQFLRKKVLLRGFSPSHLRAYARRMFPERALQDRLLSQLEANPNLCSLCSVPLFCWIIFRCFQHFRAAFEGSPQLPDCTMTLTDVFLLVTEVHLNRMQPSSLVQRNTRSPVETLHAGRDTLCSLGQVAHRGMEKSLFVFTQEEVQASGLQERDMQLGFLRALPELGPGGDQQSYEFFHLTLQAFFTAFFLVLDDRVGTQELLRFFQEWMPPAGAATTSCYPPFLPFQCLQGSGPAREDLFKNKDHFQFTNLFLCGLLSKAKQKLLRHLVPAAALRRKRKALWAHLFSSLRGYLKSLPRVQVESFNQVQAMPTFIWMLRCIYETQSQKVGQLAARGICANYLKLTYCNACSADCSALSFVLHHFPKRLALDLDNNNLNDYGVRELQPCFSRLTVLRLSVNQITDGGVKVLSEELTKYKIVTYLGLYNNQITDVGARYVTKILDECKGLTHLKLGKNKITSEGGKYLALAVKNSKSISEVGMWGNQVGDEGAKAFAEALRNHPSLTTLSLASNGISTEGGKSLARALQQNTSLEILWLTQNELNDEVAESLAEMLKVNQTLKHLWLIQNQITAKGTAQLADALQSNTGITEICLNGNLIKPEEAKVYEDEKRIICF

[8] = biological target: T3, Nucleotide-binding oligomerization domain-containing protein 2; test: PubChem AID 2334; assay type: functional
[9] = biological target: T5, Nuclear receptor subfamily 0 group B member 1 (Homo sapiens, UniProt P51843); test: Luminescence-based cell-based high throughput dose response assay for inhibitors of the orphan nuclear receptor subfamily 0, group B, member 1 (DAX1; NR0B1). [Related pubchem assays (depositor defined):AID504766, AID504790]; assay type: functional
T5 sequence (P51843 whole entry): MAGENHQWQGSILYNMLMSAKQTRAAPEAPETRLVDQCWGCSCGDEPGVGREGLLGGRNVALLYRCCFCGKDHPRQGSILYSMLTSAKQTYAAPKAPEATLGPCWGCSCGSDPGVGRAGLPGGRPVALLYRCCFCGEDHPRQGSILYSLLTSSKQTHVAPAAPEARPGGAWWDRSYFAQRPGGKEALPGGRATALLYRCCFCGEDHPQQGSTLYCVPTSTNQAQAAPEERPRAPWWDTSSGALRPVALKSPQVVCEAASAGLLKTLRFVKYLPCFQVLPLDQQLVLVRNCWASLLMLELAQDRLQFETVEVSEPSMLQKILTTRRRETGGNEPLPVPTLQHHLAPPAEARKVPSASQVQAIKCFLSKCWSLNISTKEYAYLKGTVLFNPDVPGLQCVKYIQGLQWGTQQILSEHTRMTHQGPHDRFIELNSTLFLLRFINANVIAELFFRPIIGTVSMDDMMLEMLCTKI

[10] = biological target: T6, Oxysterols receptor LXR-beta (Homo sapiens, UniProt P55055); assay type: functional, cell-based;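 further: Cell-based luminescence dose-response assay of agonist activity at LXR, run as a confirmatory counterscreen to a daf-12 agonist screen; HEK293 cells with Gal4-LXR fusion and GAL4-driven luciferase reporter; agonist potency from rising luciferase signal of a Gal4-LXR reporter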
T6 sequence (P55055 whole entry): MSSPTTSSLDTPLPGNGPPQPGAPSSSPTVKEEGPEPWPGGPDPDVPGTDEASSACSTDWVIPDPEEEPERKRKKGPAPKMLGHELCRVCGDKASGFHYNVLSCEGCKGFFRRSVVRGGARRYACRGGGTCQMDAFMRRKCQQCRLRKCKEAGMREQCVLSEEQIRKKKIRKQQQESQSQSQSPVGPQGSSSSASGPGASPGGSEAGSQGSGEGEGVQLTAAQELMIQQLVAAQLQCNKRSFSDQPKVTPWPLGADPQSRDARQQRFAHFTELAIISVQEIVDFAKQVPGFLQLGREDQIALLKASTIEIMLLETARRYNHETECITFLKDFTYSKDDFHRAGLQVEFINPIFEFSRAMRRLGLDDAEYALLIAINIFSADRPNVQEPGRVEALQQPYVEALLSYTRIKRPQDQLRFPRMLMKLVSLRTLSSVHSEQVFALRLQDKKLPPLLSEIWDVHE

HEK293 [11] = test: cells; assay type: functional, cell-based; conditions: Homo sapiens
[12] = biological target: T7, RNA-binding protein pos-1 (Caenorhabditis elegans, UniProt G5EF15); test: inhibitors of POS-1/mex-3 RNA binding, dose response, biochemical, fluorescence polarization (AID 1964);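 further: purified POS-1 fused to maltose binding protein made in E. coli; potency of compounds blocking POS-1 binding to fluorescent RNA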
T7 sequence (G5EF15 whole entry): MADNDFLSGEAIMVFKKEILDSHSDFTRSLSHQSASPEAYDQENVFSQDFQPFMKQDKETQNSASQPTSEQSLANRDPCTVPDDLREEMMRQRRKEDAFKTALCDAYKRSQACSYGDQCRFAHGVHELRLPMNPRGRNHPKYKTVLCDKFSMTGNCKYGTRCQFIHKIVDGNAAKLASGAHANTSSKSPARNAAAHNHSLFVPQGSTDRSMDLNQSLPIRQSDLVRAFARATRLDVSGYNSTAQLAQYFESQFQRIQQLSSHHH

[13] = biological target: T8, Zinc finger protein mex-5 (Caenorhabditis elegans, UniProt Q9XUB2); test: MEX-5/TCR-2 RNA interaction inhibitors, dose response, biochemical, C. elegans, fluorescence polarization (AID 1960)
T8 sequence (Q9XUB2 whole entry): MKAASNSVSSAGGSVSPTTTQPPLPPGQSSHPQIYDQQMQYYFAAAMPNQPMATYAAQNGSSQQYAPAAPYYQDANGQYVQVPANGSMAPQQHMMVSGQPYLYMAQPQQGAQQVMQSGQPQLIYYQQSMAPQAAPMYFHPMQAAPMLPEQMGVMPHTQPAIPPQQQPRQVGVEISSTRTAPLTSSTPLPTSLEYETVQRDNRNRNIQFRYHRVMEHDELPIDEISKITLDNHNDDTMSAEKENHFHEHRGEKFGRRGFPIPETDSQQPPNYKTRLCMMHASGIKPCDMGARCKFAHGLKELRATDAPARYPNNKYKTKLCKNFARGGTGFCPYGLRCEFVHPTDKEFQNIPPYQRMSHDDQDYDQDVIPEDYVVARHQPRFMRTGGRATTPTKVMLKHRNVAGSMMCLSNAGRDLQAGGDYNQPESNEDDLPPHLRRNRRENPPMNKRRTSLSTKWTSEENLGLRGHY

HEK293 [14] = test: cytotoxicity in HEK293T NF-kB-Luc cells, SAR follow-up, cytotoxicity control for NF-kB activator project, cell-based, resazurin fluorescence (AID 493251); assay type: functional; conditions: Homo sapiens
Jurkat = test: SAR Analysis of small molecule inhibitors of […] specific antigen receptor-induced NF-kB activation in a Jurkat cell line using a luminescence assay - Set 3. [Related pubchem assays (depositor defined):AID435022, AID435025, AID465]; assay type: functional, cell-based; conditions: Homo sapiens
HEK293 [15] = test: SAR Analysis of small molecule inhibitors of B-cell specific antigen receptor-induced NF-kB activation in a HEK-293T cell line using a luminescence assay - Set 2. [Related pubchem assays (depositor defined):AID435022, AID435025, AID489021]; assay type: functional, cell-based; conditions: Homo sapiens

Beta-galactosidase, sequence (Q8VNN2 whole entry): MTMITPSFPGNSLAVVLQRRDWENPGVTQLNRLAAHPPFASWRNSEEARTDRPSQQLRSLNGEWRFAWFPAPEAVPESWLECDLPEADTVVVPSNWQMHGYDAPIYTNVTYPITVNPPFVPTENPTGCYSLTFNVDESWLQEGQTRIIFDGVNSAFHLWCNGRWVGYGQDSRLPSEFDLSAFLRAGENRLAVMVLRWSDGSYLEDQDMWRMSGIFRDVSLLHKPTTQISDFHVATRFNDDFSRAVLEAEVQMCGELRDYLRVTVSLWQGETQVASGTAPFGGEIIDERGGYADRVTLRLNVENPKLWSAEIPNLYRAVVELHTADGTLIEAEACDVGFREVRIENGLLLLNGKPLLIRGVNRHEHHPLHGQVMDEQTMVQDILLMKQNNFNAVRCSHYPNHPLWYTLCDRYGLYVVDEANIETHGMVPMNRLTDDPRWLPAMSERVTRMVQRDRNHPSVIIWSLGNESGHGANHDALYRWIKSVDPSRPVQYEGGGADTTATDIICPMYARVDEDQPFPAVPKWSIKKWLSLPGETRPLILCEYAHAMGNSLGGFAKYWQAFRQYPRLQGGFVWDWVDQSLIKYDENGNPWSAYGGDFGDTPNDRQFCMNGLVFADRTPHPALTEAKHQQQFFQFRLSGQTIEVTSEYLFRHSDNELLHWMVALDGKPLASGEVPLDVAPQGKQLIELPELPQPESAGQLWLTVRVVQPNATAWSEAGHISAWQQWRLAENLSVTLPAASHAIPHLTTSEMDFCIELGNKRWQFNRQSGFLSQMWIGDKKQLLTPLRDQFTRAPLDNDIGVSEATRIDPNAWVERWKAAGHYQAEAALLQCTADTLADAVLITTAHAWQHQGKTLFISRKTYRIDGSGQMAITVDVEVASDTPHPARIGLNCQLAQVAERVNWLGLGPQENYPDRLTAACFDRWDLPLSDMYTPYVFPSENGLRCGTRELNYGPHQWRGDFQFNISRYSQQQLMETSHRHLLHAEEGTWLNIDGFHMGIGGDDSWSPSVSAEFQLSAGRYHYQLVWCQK
T3 sequence (Q9HC29 whole entry, the tested form may be a part): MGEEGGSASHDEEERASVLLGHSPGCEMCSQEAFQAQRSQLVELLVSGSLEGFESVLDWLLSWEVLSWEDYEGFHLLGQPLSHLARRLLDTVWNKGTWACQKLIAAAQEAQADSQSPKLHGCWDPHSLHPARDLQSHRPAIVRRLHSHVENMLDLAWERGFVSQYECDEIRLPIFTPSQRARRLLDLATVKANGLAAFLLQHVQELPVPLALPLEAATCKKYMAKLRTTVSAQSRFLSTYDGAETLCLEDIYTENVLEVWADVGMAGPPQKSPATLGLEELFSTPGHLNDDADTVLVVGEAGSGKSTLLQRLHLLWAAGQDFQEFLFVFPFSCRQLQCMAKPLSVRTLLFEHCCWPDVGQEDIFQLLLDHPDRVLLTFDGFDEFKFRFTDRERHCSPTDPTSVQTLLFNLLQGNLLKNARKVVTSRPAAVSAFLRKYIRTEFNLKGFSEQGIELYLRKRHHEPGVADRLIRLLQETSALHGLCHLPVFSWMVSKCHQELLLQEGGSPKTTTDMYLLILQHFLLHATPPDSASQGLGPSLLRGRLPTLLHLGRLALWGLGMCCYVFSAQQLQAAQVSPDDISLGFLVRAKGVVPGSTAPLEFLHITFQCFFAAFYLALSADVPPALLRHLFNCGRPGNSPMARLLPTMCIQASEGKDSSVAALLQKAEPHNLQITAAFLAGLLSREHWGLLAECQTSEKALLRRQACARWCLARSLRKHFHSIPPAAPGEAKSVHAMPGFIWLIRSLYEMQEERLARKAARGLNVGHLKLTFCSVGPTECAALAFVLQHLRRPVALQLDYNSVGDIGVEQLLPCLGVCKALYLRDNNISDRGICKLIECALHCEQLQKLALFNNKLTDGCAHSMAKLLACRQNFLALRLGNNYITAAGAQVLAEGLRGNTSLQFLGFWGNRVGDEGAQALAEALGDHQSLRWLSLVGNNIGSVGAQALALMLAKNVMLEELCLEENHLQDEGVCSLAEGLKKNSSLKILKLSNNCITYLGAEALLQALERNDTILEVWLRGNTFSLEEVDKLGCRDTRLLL
ATP-dependent molecular chaperone HSP82, sequence (C4YTQ8 whole entry): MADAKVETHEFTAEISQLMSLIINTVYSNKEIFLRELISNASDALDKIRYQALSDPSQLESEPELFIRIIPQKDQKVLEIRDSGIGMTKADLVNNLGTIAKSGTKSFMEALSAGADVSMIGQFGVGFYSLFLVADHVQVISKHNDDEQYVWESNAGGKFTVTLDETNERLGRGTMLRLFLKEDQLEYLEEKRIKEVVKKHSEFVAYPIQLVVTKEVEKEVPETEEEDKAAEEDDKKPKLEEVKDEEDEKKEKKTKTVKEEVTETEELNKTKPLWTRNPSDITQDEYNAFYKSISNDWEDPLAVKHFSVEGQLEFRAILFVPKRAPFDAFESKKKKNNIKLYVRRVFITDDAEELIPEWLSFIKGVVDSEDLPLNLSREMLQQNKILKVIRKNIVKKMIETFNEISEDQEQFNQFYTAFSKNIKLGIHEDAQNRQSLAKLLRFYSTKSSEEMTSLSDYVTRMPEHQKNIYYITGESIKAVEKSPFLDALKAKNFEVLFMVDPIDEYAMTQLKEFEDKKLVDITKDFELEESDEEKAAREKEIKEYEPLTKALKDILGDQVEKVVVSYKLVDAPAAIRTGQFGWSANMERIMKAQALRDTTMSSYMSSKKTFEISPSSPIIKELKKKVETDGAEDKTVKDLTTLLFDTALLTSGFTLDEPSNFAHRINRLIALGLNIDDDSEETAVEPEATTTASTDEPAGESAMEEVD
Tumor necrosis factor, sequence (P01375 whole entry, the tested form may be a part): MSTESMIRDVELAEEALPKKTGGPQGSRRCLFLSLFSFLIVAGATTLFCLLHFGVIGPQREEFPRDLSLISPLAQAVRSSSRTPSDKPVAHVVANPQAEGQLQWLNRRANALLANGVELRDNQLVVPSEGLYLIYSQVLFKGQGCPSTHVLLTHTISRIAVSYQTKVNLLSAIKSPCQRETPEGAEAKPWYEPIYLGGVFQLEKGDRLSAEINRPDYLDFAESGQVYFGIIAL

SMILES	IC50 [1]	EC50 (Beta-galactosidase)	IC50 [9]	IC50 (HEK293 [11])	IC50 (HEK293 [14])	IC50 (Jurkat)	IC50 (HEK293 [15])	also measured
CCC(C)c1ccc(O)c(NC(=S)NC(=O)c2cccnc2)c1 (stereo unspecified)	14 µM (active)	> 40 µM (inactive)						EC50 [2]: > 150 µM (inactive); EC50 [3]: 48.9 µM (active); EC50 [4]: 0.632 µM (active); EC50 [5]: > 180 µM (inactive)
Fc1ccc(NC(=S)Nc2nccs2)cc1	25.2 µM (not active)	> 40 µM (inactive)						IC50 (Tumor necrosis factor): > 20 µM (inactive); EC50 [6]: > 20 µM (inactive); IC50 [7]: > 20 µM (inactive); IC50 [8]: > 20 µM (inactive)
Cc1ccc(-c2cc(-c3ccc(F)cc3)[nH]n2)c(O)c1			> 67.5 µM (inactive)	> 67.5 µM (inactive)				EC50 [10]: > 67.5 µM (inactive); EC50 (cells): > 67.5 µM (inactive)
Fc1ccc(-c2nc3c(Cl)cc(C(F)(F)F)cn3c2Cl)cc1			> 67.6 µM (inactive)	> 67.6 µM (inactive)				EC50 [12]: 41.6 µM (active); EC50 [13]: 37.1 µM (active)
CCOc1ccc(-c2nc(CSCC(=O)NCCc3ccc(C)cc3)c(C)o2)cc1					> 80 µM (inactive)	49.8 µM (inactive)	40.2 µM (inactive)	
CC(C)(C)c1ccc(-c2noc(CCC(=O)Nc3cccc([N+](=O)[O-])c3)n2)cc1					22.1 µM (inactive)	60.7 µM (inactive)	3.73 µM (active)	
